Laboratory results as given in patent publication US20060282906A1, “Non-transgenic rodent model of Alzheimer's disease” (priority 2005, published 2006).
Marks after values point to notes of the source that are not given here.

What was measured:
[1] = test system: Male Wistar rats; assay: Immunohistochemistry of rat brain sections, grading scale of staining size and intensity; type: in vivo; parameters: key to Effect of Triflusal on NKκB(p65) immunostaining / Effect of Triflusal on COX-2 immunostaining / Effect of Triflusal on GFAP immunostaining / Effect of Triflusal on OX-6 immunostaining / Effect of Triflusal on APP immunostaining / Effect of Triflusal on Tau-2 immunostaining / Effect of Triflusal on TNFα immunostaining / Effect of Triflusal on Cas-3 immunostaining: −: no effect; ↓: moderate reduction; ↓↓: strong reduction
Protocol: (§1) Male Wistar rats (250 to 300 grams; Charles River, Montreal, Quebec) were divided into 4 groups: intracerebroventricular injections of Aβ(25-35) (BACHEM, Torrance, Calif.); endothelin injections into the right striatum; both Aβ(25-35) and striatal endothelin injections; and sham procedures. The Aβ(25-35) fragment was used to reduce the possibility of rapid coagulation and to allow diffusion of the peptide into the brain.
(§2) All rats were anesthetized using 40 mg/kg of pentobarbital (Somnotol; MTC Pharmaceuticals, Cambridge, Ontario) intraperitoneally. Body temperature was maintained at 37° C. Aβ(25-35) (50 nmol in 10 μL of saline) was injected bilaterally into the lateral ventricles. Aβ(25-35) was prepared according to established methods (Sigurdsson, et al. (1997) supra). Aβ(25-35) (50 nmol in 10 μL of saline at a rate of 1 μL/minute) was injected bilaterally into the lateral ventricles via a stainless-steel cannula (23-gauge; anterior/posterior −0.8, medial/lateral ±1.4, and dorsal/ventral −4.0 below dura). Two endothelin injections (6 pmol in 3 μL of saline), 1 mm apart, were made into the right striatum (Sigurdsson, et al. (1997) supra). Sham procedures involved all the surgical steps without injections of Aβ(25-35) or endothelin. After wound suture, all rats received 40 mg/kg of buprenorphine intramuscularly and were allowed to recover from surgery for 7 days.
(§3) Twenty-one days after surgery, all animals were euthanized via pentobarbital overdose and perfused transaortically first with saline followed by 4% formaldehyde (pH 7.4). The brains were removed and cryoprotected in 30% sucrose for 36 hours at 4° C. Coronal sections (30 pm) were cut using a cryostat.
(§4) Free-floating sections from rat brains (n=5 for each group) were treated with 0.03% hydrogen peroxide and blocked with 3 mL of horse or rabbit serum (VECTASTAIN® Elite, Vector Laboratories, Burlingame, Calif.). The following primary antibodies were diluted in filtered phosphate-buffered saline: APPa4 mouse monoclonal (Chemicon International Inc, Temecula, Calif.; 1:1000), GFAP mouse monoclonal (Sigma-Aldrich, St Louis, Mo.; 1:1000), OX-6 mouse monoclonal (Serotec, Inc., Raleigh, N.C.; 1:1000), Tau-2 mouse monoclonal (Sigma-Aldrich, St Louis, Mo.; 1:10000), NFκB(p65) goat polyclonal (Santa Cruz Biotechnologies, Santa Cruz, Calif.; 1:1000), IL-1β goat polyclonal (Santa Cruz Biotechnologies, Santa Cruz, Calif.; 1:1000), and TNF-α-M18 goat polyclonal (Santa Cruz Biotechnologies, Santa Cruz, Calif.; 1:1000). APP-, Tau-2-, GFAP-, and OX-6-stained sections were incubated with 3 mL of horse biotinylated anti-mouse secondary antibody and horse serum. NFκB(p65), IL-1β, and TNF-α-stained sections were incubated with 3 mL of biotinylated rabbit anti-goat secondary antibody and rabbit serum. Sections were then incubated in 3 mL of avidin-biotin complex followed by 0.05% diaminobenzidine. Sections were washed, air-dried, cleared in xylene, and cover-slipped. Brains to be compared were processed at the same time using the same solutions to reduce variability in immunostaining caused by separate processing.
(§5) Digital photographs were taken using a light microscope (Leitz Diaplan). An investigator was blinded to the identification of the rat sections while analysis was being performed. All immunohistochemical data that were compared was processed at the same time to reduce any variation caused by differences of intensity. A grading scale was based on both observable size and intensity of staining (n=5 for each group). Also, relative optical density measurements and numbers of stained cells or accumulations were measured in entire brain areas for quantitative analysis and statistically analyzed with ANOVA and Tukey post hoc test with a significance level of P<0.05.

[2] = test system: Male Wistar rats; assay: Quantitative immunohistochemistry: relative optical density and numbers of stained cells or accumulations; type: in vivo, rat; details: Trifusal treatment (brackets)
Protocol: as §1, §2, §3, §4, §5

[3] = test system: rats; assay: Barnes circular platform test; type: in vivo, rat
Protocol: All rats were anesthetized using 40 mg/kg of pentobarbital (Somnotol; MTC Pharmaceuticals, Cambridge, Ontario) intraperitoneally. Body temperature was maintained at 37° C. Aβ(25-35) (50 nmol in 10 μL of saline) was injected bilaterally into the lateral ventricles. Aβ(25-35) was prepared according to established methods (Sigurdsson, et al. (1997) supra). […] (1997) supra). […] After wound suture, all rats received […] of buprenorphine intramuscularly and were allowed to recover from surgery for 7 days. Learning and memory deficits were assessed using the Barnes circular platform. There are twenty holes evenly located along the border of circular platform with a hidden escape box beneath one of the holes. The circular platform is equipped with colored cues on the surrounding wall. A bright light combined with wind from a fan hung on the ceiling above the platform provides the incentive for the rats to find the hidden box and enter the escape hole. During each trial, the rats were initially placed in the center of the platform under an inverted box, then the box was lifted up and the rat is allowed to find the hole for up to 4 minutes. The latency (time to enter the escape hole) was recorded during the trial. There was a training period (trials 1-14) performed at day −7 to day −1 before surgery (day 0). PDTC or vehicle treatment was given 30 minutes before Aβ(25-35) injections and from days 1 to 7 post-surgery. Spatial memory was then tested on day 8 (trial 15) with the escape hole placed in the same location. Spatial learning was examined by re-testing (re-acquisition) from days 9 to 15 (trials 16-29) with the escape box relocated at […] from the original location. Digital photographs were taken using a light microscope (Leitz Diaplan). […] Also, relative optical density measurements and numbers of stained cells or accumulations were measured in entire brain areas for quantitative analysis and statistically analyzed with ANOVA and Tukey post hoc test with a significance level of P<0.05. […] The staircase data are expressed as the mean±SEM. […] Data are expressed as mean±SEM. […]

[4] = Corpus Callosum, Aβ-Endothelin rats
[5] = Hippocampus, Aβ-Endothelin rats
[6] = Hypothalamus, Aβ-Endothelin rats
[7] = Striatum (right), Aβ-Endothelin rats
[8] = Striatum (right), Endothelin rats
[9] = Thalamus (right), Aβ-Endothelin rats
[10] = Thalamus (right), Endothelin rats
[11] = Left Hippocampus, Endothelin rats
[12] = Right Hippocampus, Aβ/Endo rats
[13] = Right Hippocampus, Endothelin rats

## CC(=O)Oc1cc(C(F)(F)F)ccc1C(=O)O [Triflusal]
[1]; Corpus Callosum, Aβ rats
  Effect of Triflusal on APP immunostaining: ↓↓
  Effect of Triflusal on COX-2 immunostaining: ↓↓
  Effect of Triflusal on GFAP immunostaining: ↓↓
  Effect of Triflusal on NKκB(p65) immunostaining: ↓↓
  Effect of Triflusal on OX-6 immunostaining: ↓↓
  Effect of Triflusal on TNFα immunostaining: ↓↓
  Effect of Triflusal on Tau-2 immunostaining: ↓↓
[1]; [4]
  Effect of Triflusal on APP immunostaining: −
  Effect of Triflusal on COX-2 immunostaining: ↓
  Effect of Triflusal on GFAP immunostaining: −
  Effect of Triflusal on NKκB(p65) immunostaining: ↓
  Effect of Triflusal on OX-6 immunostaining: ↓
  Effect of Triflusal on TNFα immunostaining: −
  Effect of Triflusal on Tau-2 immunostaining: −
[1]; Corpus Callosum, Endothelin rats
  Effect of Triflusal on GFAP immunostaining: −
[1]; Cortex, Aβ rats
  Effect of Triflusal on APP immunostaining: ↓↓
  Effect of Triflusal on COX-2 immunostaining: ↓↓
  Effect of Triflusal on GFAP immunostaining: −
  Effect of Triflusal on NKκB(p65) immunostaining: ↓
  Effect of Triflusal on OX-6 immunostaining: ↓
  Effect of Triflusal on TNFα immunostaining: ↓
  Effect of Triflusal on Tau-2 immunostaining: ↓↓
[1]; Cortex, Aβ-Endothelin rats
  Effect of Triflusal on APP immunostaining: −
  Effect of Triflusal on COX-2 immunostaining: ↓
  Effect of Triflusal on GFAP immunostaining: −
  Effect of Triflusal on NKκB(p65) immunostaining: −
  Effect of Triflusal on OX-6 immunostaining: −
  Effect of Triflusal on TNFα immunostaining: ↓
  Effect of Triflusal on Tau-2 immunostaining: −
[1]; Cortex, Endothelin rats
  Effect of Triflusal on GFAP immunostaining: −
[1]; Hippocampus, Aβ rats
  Effect of Triflusal on APP immunostaining: ↓
  Effect of Triflusal on COX-2 immunostaining: ↓
  Effect of Triflusal on GFAP immunostaining: −
  Effect of Triflusal on NKκB(p65) immunostaining: ↓
  Effect of Triflusal on OX-6 immunostaining: ↓
  Effect of Triflusal on Tau-2 immunostaining: ↓
[1]; [5]
  Effect of Triflusal on APP immunostaining: −
  Effect of Triflusal on COX-2 immunostaining: −
  Effect of Triflusal on GFAP immunostaining: −
  Effect of Triflusal on NKκB(p65) immunostaining: −
  Effect of Triflusal on OX-6 immunostaining: −
  Effect of Triflusal on Tau-2 immunostaining: −
[1]; Hippocampus, Endothelin rats
  Effect of Triflusal on GFAP immunostaining: −
[1]; Hypothalamus, Aβ rats
  Effect of Triflusal on APP immunostaining: ↓
  Effect of Triflusal on NKκB(p65) immunostaining: ↓↓
  Effect of Triflusal on TNFα immunostaining: ↓↓
[1]; [6]
  Effect of Triflusal on APP immunostaining: −
  Effect of Triflusal on NKκB(p65) immunostaining: ↓
  Effect of Triflusal on TNFα immunostaining: ↓
[1]; Striatum (right), Aβ rats
  Effect of Triflusal on GFAP immunostaining: −
[1]; [7]
  Effect of Triflusal on APP immunostaining: ↓
  Effect of Triflusal on COX-2 immunostaining: ↓
  Effect of Triflusal on GFAP immunostaining: −
  Effect of Triflusal on NKκB(p65) immunostaining: ↓
  Effect of Triflusal on OX-6 immunostaining: ↓
  Effect of Triflusal on TNFα immunostaining: ↓
[1]; [8]
  Effect of Triflusal on APP immunostaining: ↓↓
  Effect of Triflusal on COX-2 immunostaining: ↓↓
  Effect of Triflusal on Cas-3 immunostaining: ↓
  Effect of Triflusal on GFAP immunostaining: −
  Effect of Triflusal on NKκB(p65) immunostaining: ↓
  Effect of Triflusal on OX-6 immunostaining: ↓↓
  Effect of Triflusal on TNFα immunostaining: ↓
[1]; Thalamus (right), Aβ rats
  Effect of Triflusal on OX-6 immunostaining: −
  Effect of Triflusal on TNFα immunostaining: −
[1]; [9]
  Effect of Triflusal on OX-6 immunostaining: −
  Effect of Triflusal on TNFα immunostaining: −
[1]; [10]
  Effect of Triflusal on OX-6 immunostaining: −
  Effect of Triflusal on TNFα immunostaining: −
[2]; Left Cortex, Aβ rats
  APP Accumulation: (12.5 ± 2.6)^x
[2]; Left Cortex, Aβ/Endo rats
  APP Accumulation: 64.5 ± 10.2)
[2]; Left Cortex, Endothelin rats
  APP Accumulation: (7.3 ± 1.3)
[2]; Left Cortex, Sham rats
  APP Accumulation: (7.3 ± 2.3)
[2]; Left Hippocampus, Aβ rats
  GFAP Intensity: (166.8 ± 9.1)
  OX6 Intensity: (109.8 ± 6.8)^a
[2]; Left Hippocampus, Aβ/Endo rats
  GFAP Intensity: (188.9 ± 4.4)
  OX6 Intensity: (149.0 ± 7.1)
[2]; [11]
  GFAP Intensity: (148.8 ± 4.5)
  OX6 Intensity: (106.8 ± 6.4)
[2]; Left Hippocampus, Sham rats
  GFAP Intensity: (150.8 ± 5.5)
  OX6 Intensity: (97.9 ± 2.0)
[2]; Right Cortex, Aβ rats
  APP Accumulation: (11.0 ± 2.1)^x
[2]; Right Cortex, Aβ/Endo rats
  APP Accumulation: (85.8 ± 16.1)
[2]; Right Cortex, Endothelin rats
  APP Accumulation: (13.3 ± 2.1)
[2]; Right Cortex, Sham rats
  APP Accumulation: (5.0 ± 2.7)
[2]; Right Hippocampus, Aβ rats
  GFAP Intensity: (164.2 ± 10.1)
  OX6 Intensity: (110.8 ± 4.6)^x
[2]; [12]
  GFAP Intensity: (188.3 ± 8.2)
  OX6 Intensity: (149.4 ± 7.4)^x
[2]; [13]
  GFAP Intensity: (150.1 ± 3.6)^x
  OX6 Intensity: (97.3 ± 4.5)^x
[2]; Right Hippocampus, Sham rats
  GFAP Intensity: (152.5 ± 7.9)
  OX6 Intensity: (93.4 ± 1.4)

## S=C(S)N1CCCC1 [PDTC, pyrrolidine dithiocarbamate]
[3]; 100 mg/kg 30 minutes before Aβ(25-35) injections and 7 days post-surgery, trial 15 (day 8) vs trial 14 (day −1)
  Effect on Aβ(25-35) induced increases in latency: prevented the Aβ(25-35) induced increases in latency
[3]; Aβ(25-35) group treated with PDTC, P<0.05, not significantly different from sham groups
  test response (latency) vs Aβ(25-35) group with vehicle treatment: significantly less
